Patent publication US7452887B2, “Quinoline- and isoquinoline-based compounds exhibiting ATP-utilizing enzyme inhibitory activity, and compositions, and uses thereof” (Amphora Discovery Corporation, priority 2004, dated 2008)

Tests used:
Assay in all cases: HTS ATP-utilizing enzyme assay, off-chip mobility-shift (Caliper HTS 250)
Assay type in all cases: biochemical
Details in all cases: test compound 10 μM, kinase listed = active (greater than six-sigma from the mean activity of inactive compounds)
FLT-3 = target: T1, FLT-3 (Homo sapiens, UniProt P36888)
T1 sequence (P36888 27-993): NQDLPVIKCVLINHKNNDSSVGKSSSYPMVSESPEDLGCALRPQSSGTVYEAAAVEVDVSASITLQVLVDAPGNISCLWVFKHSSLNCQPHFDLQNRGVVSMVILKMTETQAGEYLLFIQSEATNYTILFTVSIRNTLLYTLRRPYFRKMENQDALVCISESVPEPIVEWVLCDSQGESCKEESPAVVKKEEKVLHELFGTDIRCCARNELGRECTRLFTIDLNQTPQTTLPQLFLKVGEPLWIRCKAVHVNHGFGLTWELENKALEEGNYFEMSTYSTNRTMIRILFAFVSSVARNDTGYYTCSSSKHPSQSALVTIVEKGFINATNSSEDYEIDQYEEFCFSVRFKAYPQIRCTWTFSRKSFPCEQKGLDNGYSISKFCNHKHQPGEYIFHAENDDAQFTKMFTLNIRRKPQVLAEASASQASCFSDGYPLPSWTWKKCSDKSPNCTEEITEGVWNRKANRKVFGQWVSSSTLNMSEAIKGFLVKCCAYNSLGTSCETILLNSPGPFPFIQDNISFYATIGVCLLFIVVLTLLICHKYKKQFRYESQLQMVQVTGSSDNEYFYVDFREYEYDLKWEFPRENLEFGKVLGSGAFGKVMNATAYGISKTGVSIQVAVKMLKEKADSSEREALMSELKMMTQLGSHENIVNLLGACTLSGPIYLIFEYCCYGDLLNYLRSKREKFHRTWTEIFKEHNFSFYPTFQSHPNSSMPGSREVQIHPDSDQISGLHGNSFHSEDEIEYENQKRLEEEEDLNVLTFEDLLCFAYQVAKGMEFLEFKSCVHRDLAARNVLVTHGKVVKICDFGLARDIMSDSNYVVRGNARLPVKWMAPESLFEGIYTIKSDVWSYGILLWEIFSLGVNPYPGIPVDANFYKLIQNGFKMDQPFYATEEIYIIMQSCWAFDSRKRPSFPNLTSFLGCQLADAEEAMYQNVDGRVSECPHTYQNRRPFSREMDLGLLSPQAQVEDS
Outline: (§1)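 Steps: compound added at 10 μM final; enzyme then peptide substrate added in HEPES pH 7.5, Triton X-100, BSA buffer; incubation 2.5 hrs at 20° C. to 22° C.; EDTA quench; microfluidic separation of substrate and phosphoproduct. DMSO wells set 0% inhibition, EDTA wells 100%.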

KIT = KIT (Homo sapiens, UniProt P10721)
KIT, sequence (P10721 26-976): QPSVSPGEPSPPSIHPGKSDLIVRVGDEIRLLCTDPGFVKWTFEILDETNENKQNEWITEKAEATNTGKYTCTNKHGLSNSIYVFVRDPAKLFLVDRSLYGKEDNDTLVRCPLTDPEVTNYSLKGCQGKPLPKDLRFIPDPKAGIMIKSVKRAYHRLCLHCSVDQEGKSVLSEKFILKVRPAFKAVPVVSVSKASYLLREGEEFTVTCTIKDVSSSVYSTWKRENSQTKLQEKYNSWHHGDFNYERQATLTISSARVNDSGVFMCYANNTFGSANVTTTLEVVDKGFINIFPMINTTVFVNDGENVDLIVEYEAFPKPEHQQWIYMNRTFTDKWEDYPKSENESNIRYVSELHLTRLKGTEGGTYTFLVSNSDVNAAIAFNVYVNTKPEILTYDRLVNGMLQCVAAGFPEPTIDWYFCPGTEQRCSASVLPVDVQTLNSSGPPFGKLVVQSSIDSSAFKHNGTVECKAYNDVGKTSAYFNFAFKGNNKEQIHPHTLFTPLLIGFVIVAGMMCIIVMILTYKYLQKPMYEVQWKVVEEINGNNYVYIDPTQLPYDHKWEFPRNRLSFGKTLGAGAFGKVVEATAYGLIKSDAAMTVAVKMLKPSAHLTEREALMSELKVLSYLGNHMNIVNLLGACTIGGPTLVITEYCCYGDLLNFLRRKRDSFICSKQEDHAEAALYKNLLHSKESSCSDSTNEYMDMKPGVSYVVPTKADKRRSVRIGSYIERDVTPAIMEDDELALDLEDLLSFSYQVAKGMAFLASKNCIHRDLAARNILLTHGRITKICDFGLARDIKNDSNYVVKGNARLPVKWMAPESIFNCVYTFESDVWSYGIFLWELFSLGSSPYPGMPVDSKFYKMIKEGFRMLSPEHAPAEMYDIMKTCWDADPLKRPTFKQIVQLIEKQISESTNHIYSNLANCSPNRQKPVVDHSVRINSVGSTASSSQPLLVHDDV
Outline: as §1

PDGFR-α = PDGFR-α (Homo sapiens, UniProt P16234)
PDGFR-α, sequence (P16234 24-1089): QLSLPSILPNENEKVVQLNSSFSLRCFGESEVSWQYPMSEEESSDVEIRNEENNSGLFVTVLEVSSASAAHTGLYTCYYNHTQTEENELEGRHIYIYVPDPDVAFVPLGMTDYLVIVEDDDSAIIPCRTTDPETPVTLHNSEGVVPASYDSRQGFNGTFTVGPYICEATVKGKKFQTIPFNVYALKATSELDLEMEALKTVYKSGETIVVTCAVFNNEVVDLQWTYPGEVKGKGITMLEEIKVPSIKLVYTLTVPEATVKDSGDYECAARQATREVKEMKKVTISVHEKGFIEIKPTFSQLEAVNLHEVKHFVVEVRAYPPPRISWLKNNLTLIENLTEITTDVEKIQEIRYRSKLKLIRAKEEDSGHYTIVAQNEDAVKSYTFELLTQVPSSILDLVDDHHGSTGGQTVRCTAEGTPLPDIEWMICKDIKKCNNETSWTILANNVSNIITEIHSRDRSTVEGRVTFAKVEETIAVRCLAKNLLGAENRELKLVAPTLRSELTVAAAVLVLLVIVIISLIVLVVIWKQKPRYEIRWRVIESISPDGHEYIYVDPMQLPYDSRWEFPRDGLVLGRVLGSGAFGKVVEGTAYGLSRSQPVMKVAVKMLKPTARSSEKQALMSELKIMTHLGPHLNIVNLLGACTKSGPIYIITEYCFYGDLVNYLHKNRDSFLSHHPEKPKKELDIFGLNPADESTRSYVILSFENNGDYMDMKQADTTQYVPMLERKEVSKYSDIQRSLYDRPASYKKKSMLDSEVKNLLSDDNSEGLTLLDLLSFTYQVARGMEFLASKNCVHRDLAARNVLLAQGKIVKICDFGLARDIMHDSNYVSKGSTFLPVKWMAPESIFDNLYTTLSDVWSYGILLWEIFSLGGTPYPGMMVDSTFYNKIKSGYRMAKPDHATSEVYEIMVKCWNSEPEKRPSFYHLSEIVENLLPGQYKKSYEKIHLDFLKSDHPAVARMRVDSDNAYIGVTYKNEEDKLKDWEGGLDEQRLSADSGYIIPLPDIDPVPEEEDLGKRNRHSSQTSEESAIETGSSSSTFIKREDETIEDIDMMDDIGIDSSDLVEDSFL
Outline: as §1

C-TAK1 = C-TAK1 (Homo sapiens, UniProt P27448)
C-TAK1, sequence (P27448 whole entry): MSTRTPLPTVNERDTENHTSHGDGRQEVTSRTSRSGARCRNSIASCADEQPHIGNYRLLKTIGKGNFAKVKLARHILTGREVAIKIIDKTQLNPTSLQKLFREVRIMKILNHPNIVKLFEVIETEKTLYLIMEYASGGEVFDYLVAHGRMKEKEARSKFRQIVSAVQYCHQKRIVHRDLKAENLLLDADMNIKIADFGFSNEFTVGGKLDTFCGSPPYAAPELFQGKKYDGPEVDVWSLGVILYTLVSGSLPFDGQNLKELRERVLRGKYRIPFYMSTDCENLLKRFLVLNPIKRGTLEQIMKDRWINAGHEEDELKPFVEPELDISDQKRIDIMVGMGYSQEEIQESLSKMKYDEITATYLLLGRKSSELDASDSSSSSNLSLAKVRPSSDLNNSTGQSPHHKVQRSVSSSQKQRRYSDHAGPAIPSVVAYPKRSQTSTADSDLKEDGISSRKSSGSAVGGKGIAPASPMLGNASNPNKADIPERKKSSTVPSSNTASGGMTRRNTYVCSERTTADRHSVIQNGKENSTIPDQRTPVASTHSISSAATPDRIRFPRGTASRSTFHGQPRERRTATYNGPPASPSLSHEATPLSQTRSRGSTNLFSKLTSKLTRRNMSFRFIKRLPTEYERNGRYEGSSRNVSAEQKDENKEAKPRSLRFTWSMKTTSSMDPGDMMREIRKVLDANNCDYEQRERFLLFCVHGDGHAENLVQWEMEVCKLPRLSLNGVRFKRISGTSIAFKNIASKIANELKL
Outline: as §1

GSK3-α = GSK3-α (Homo sapiens, UniProt P49840)
GSK3-α, sequence (P49840 whole entry): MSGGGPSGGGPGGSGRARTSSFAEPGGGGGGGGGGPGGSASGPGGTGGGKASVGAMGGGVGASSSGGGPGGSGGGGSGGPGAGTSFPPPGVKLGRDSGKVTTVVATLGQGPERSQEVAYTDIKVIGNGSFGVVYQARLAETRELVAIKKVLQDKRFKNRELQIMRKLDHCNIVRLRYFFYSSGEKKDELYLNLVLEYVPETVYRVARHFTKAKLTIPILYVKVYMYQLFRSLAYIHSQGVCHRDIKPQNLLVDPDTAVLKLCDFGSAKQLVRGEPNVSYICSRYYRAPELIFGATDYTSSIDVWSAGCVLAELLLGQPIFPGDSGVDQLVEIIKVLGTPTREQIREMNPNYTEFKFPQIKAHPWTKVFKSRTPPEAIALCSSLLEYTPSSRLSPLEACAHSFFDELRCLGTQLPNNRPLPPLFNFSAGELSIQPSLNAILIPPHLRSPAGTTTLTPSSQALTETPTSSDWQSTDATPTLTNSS
Outline: as §1

CHEK2 = CHEK2 (Homo sapiens, UniProt O96017)
CHEK2, sequence (O96017 whole entry): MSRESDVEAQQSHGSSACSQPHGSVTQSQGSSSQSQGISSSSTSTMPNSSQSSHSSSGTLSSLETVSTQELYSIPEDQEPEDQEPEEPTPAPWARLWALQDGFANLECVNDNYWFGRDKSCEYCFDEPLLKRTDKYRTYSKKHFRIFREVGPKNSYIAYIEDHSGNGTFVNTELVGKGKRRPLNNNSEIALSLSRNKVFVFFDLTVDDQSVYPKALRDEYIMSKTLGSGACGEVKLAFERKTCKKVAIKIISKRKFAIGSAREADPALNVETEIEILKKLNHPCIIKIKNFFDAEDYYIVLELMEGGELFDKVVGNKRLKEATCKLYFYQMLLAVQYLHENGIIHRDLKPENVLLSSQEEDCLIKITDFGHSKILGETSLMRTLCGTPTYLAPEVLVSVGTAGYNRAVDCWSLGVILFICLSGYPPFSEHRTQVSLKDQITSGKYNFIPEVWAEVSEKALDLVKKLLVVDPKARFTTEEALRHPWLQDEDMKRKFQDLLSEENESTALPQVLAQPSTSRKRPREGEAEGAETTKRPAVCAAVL
Outline: as §1

LYNA = LYNA (Homo sapiens, UniProt P07948)
LYNA, sequence (P07948 whole entry): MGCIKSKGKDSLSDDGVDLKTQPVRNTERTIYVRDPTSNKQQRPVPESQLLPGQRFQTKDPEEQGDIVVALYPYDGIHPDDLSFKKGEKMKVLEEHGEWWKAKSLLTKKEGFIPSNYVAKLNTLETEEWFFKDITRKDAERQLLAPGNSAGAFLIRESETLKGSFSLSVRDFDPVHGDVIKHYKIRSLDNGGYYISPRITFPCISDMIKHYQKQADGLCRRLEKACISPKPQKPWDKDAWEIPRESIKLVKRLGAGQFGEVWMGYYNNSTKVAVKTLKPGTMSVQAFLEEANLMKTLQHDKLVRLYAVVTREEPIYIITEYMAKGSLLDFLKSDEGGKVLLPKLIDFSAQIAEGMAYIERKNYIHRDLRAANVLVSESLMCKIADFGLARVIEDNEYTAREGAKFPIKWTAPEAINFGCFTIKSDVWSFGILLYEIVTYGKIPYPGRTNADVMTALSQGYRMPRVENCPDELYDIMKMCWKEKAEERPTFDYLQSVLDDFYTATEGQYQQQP
Outline: as §1

SYK = SYK (Homo sapiens, UniProt P43405)
Outline: as §1

AKT3 = AKT3 (Homo sapiens, UniProt Q9Y243)
AKT3, sequence (Q9Y243 whole entry): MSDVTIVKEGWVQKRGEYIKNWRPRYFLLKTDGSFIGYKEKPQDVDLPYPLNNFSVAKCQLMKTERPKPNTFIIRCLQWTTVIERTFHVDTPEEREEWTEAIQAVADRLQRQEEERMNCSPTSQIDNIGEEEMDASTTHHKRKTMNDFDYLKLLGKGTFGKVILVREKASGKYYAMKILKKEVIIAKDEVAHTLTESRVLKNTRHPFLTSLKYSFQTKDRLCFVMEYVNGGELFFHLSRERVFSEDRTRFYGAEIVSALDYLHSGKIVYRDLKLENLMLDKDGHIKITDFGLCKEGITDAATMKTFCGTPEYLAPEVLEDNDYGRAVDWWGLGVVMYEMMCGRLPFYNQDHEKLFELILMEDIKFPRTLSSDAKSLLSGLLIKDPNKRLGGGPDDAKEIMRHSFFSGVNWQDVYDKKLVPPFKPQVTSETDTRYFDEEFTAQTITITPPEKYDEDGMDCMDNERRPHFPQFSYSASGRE
Outline: as §1

Compound | Activity (FLT-3) | Activity (KIT) | Activity (C-TAK1) | other results
CN1CCN(c2ccc(Nc3ccnc4ccc(-c5ccc(O)cc5)cc34)cc2)CC1 [4-(4-(4-(4-methylpiperazin-1-yl)phenylamino)quinolin-6-yl)phenol] | FLT-3 |  |  | 
COc1ccc(-c2ccc3nccc(N(C)c4ccc(N5CCN(C)CC5)cc4)c3c2)cc1 [6-(4-methoxyphenyl)-N-methyl-N-(4-(4-methylpiperazin-1-yl)phenyl)quinolin-4-amine] | FLT-3 | KIT |  | Activity (PDGFR-α): PDGFR-α
CN1CCN(c2ccc(Nc3ccnc4ccc(-c5ccc(F)cc5)cc34)cc2)CC1 [6-(4-fluorophenyl)-N-(4-(4-methylpiperazin-1-yl)phenyl)quinolin-4-amine] |  |  | C-TAK1 | Activity (GSK3-α): GSK3-α
CN1CCN(c2ccc(Nc3ccnc4ccc(-c5cccc6ccccc56)cc34)cc2)CC1 [N-(4-(4-methylpiperazin-1-yl)phenyl)-6-(naphthalen-1-yl)quinolin-4-amine] |  | KIT | C-TAK1 | Activity (CHEK2): CHEK2; Activity (LYNA): LYNA; Activity (SYK): SYK; Activity (AKT3): AKT3
CN1CCN(c2ccc(Nc3ccnc4ccc(-c5ccc6ccccc6c5)cc34)cc2)CC1 [N-(4-(4-methylpiperazin-1-yl)phenyl)-6-(naphthalen-2-yl)quinolin-4-amine] |  |  | C-TAK1 | Activity (CHEK2): CHEK2; Activity (SYK): SYK
c1ccc(-c2ccc3nccc(Nc4ccc(N5CCNCC5)cc4)c3c2)cc1 [6-phenyl-N-(4-(piperazin-1-yl)phenyl)quinolin-4-amine] | FLT-3 | KIT |  | Activity (LYNA): LYNA; Activity (PDGFR-α): PDGFR-α
CN1CCN(c2ccc(Nc3ccnc4ccc(-c5ccncc5)cc34)cc2)CC1 [N-(4-(4-methylpiperazin-1-yl)phenyl)-6-(pyridin-4-yl)quinolin-4-amine] | FLT-3 | KIT |  | Activity (GSK3-α): GSK-3-α; Activity (AKT3): AKT3
COc1ccc(-c2ccc3nccc(Nc4ccc(N5CCNCC5)cc4)c3c2)cc1 [6-(4-methoxyphenyl)-N-(4-(piperazin-1-yl)phenyl)quinolin-4-amine] | FLT-3 | KIT |  | 
